# Reference: patent US10143747B2, “Breast cancer therapeutics” (IMBA—INSTITUT FÜR MOLEKULARE BIOTECHNOLOGIE GMBH, priority 2010, dated 2018)
# Tested on: mammary epithelial cells
# Assay: γ-irradiation induced mammary epithelial cell apoptosis in vivo (active Caspase 3)
# Parameters: species or system mouse
# Conditions: MPA pellet, 5 Gray
# Description: a, Western blotting for phosphorylated (P) IKKα, total IKKα, phosphorylated (P) p65 NFκB, total p65 NFκB, phosphorylated (P) IκBα, and total IκBα in isolated primary mouse mammary gland epithelial cells (MECs) in response to RANKL stimulation (1 μg/ml). β-actin is shown as loading control. b, Western blotting for IKKα, IKKβ, IKKγ, phosphorylated (P) p65 NFκB, total p65 NFκB, phosphorylated (P) IκBα, and total IκBα in pooled late stage mammary adenocarconimas (n=4 for each lane) that developed in control, RANK^Δmam and IKKΔ^Δmam females. β-actin is shown as loading control c, Expression of RANK, CyclinD1, and p21 mRNA in late stage mammary adenocacinomas that developed in control, RANK^Δmam, and IKKα^Δmam females. Expression was determined by qRT-PCR. […] Apoptosis was detected by immunostaining for active Caspase 3. f, Apoptotic nuclei of epithelial cells (arrows) are shown for representative mammary gland sections. Magnifications×40. g, Quantification of mammary epithelial apoptosis. A minimum of 5000 nuclei was counted for each mouse. […]
# For measurement of cell cycle arrest and apoptosis primary mouse mammary epithelial cells and SKBR3 human breast cancer cells were seeded at a cell-density of 100000 cells/well in a 6-well plate and allowed to grow for 24 hours. […] Cell cycle arrest and numbers of dead cells were determined using propidium iodine staining. […]
smiles,measurement,setting,value
"CC(=O)O[C@]1(C(C)=O)CC[C@H]2[C@@H]3C[C@H](C)C4=CC(=O)CC[C@]4(C)[C@H]3CC[C@@]21C [MPA, medroxyprogesterone acetate]",protective effect of MPA on γ-irradiation-induced cell death,RANKΔmam females,abrogated the protective effects of MPA
same,γ-irradiation-induced apoptosis of mammary epithelial cells in vivo,control females,protected from γ-irradiation-induced apoptosis
